One compound from patent US11820764B2, “Compound modulating GSK-3 activity” (National Institute of Immunology, priority 2020, dated 2023) can be followed below.

A word on the Cmax: it is the peak of the concentration-time curve. As usually defined, the Tmax is the time from dosing to the highest level.

The nature of series [1]: Blood brain barrier crossing, mass spectrometry of cerebrospinal fluid of treated mice. It counts as in vivo. The settings on record: CSF of treated animals.
Series [2] is described as follows: Pharmacokinetics in rats, plasma HPLC. The series is classed as in vivo. The settings on record: both sexes, rat, 15 ug/kg. As for the experimental part:
The rats were randomly divided into two groups (I and II) in half respectively male and female. A dose of 15 μg/kg of Compound Y was administered to group I and II. Serial blood samples (0.5 mL) were collected into heparinized tubes from the retro-orbital region at 1, 2, 4, 6, 12, 24, 36, 48, and 72 h. Samples were immediately centrifuged at 12,000 rpm for 10 min and stored at −20° C. until analysis. Plasma was processed for HPLC analysis. 100 μl Acetonitrile was added in 100 μl plasma (1:1) and centrifuge at 12,000 for 5 minute. Supernatant transferred in a clean tube. Dried under Nitrogen gas 200 μl Acetonitrile: water (1:1) was added in dry tube and centrifuge at 12,000 rpm for 15 minute. Filtered with 0.2 μm membrane filter. 20 μl samples were used for analysis in HPLC. […] (FIG. 5)

Structures are written as SMILES.

As for `O=C(O)CCCCCN1C(=O)/C(=C/c2c[nH]c3ccccc23)SC1=S` [SG001], in series [1], the “crossing of blood brain barrier (detection in CSF)” value is reported as “able to cross the blood brain barrier”. In series [2], the peak level (Cmax) was 27 nM and the Tmax came out at 48 h.
